pKi: −log10 of the molar value.
Experiments:
CRF receptor = biological target: T1, CRF receptor (Rattus norvegicus, UniProt P35353); experiment: In vitro CRF receptor binding assay (competition with [125I] ovine CRF, rat cortex membranes); settings: read-out: Inhibition Ki
T1 construct: 100 μl of membrane suspension as prepared above to give a total reaction volume of 300 μl; from tissue; host or cells: rat cerebral cortex membrane homogenate
T1 sequence (P35353 24-415): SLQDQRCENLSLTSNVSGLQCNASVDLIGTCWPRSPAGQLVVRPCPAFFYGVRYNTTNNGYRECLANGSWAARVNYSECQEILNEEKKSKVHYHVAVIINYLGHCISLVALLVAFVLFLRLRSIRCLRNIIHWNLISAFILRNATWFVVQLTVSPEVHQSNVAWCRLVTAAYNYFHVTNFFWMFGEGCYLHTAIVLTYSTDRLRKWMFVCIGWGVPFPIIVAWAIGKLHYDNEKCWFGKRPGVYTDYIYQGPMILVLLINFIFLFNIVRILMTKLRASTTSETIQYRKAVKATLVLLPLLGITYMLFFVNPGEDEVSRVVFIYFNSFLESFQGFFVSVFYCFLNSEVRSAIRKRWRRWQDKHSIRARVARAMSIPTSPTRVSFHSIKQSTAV

SMILES | pKi (CRF receptor) | melting point [°C]
CCN(c1nc(C)cc(C)n1)c1c(Cl)cc(OC)cc1OC [compound 141] | > 6.30 | 99 to 102
CCN(c1nc(C)cc(C)n1)c1ccc(C(C)=O)cc1SC [compound 187, N-(4-acetyl-2-methylthiophenyl)-N-ethyl-4,6-dimethyl-2-pyrimidinamine] | > 6.30 | 125 to 126
CCN(c1nc(C)cc(C)n1)c1ccc(CCO)cc1Br [compound 64, N-(2-Bromo-4-(2-hydroxyethyl)phenyl)-N-ethyl-4,6-dimethyl-2-pyrimidinamine] | 5.00 to 5.70 | 58 to 60
COc1cc(Cl)c(Nc2nc(C)cc(C)n2)c(OC)c1 [compound 145] | 5.00 to 5.70 | 170 to 173
CCN(c1nc(C)cc(N2CCOCC2)n1)c1ccc(C(C)C)cc1I [compound 30, N-Ethyl-N-(2-iodo4-(1-methylethyl)phenyl)4-morpholinyl-6-methyl-2-pyrimidinamine] | > 6.30 | 96 to 98
Cc1ccc(N(C)c2nc(C)cc(N3CCOCC3)n2)c(Br)c1 [compound 6] | 5.70 to 6.30 | 40 to 42
CCN(c1nc(C)cc(C)n1)c1ccc(N(C)C(C)=O)cc1SC [compound 183, N-(2-methylthio-4-(N-acetyl-N-methylamino)phenyl)-N-ethyl-4,6-dimethyl-2-pyrimidinamine] | 5.00 to 5.70 | 158 to 160
CCC(=O)c1ccc(N(CC)c2nc(C)cc(C)n2)c(SC)c1 [compound 188, N-(4-propionyl-2-methylthiophenyl)-N-ethyl-4,6-dimethyl-2-pyrimidinamine] | > 6.30 | 139 to 141
CCN(c1nc(C)cc(C)n1)c1ccc(Br)cc1SC [compound 180, N-(4-bromo-2-methylthiophenyl)-N-ethyl-4,6-dimethyl-2-pyrimidinamine] | > 6.30 | 91 to 93
CCN(c1nc(C)cc(C)n1)c1ccc(NC)cc1SC [compound 190, N-(4-(N-methylamino)-2-methylthiophenyl)-N-ethyl-4,6-dimethyl-2-pyrimidinamine] | > 6.30 | 141 to 142
C=CCN(c1nc(C)cc(N2CCOCC2)n1)c1ccc(C(C)C)cc1I [compound 165, N-(2-iodo4-(1-methylethyl)phenyl)-N-allyl4-morpholino-6-methyl-2-pyrimidinamine] | > 6.30 | 109 to 112
Cc1cc(N2CCSCC2)nc(Nc2c(Br)cc(C(C)C)cc2Br)n1 [compound 166, N-(2,6-dibromo-4-(1-methylethyl)phenyl)4-thiomorpholino-6-methyl-2-pyrimidinamine] | > 6.30 | 194 to 195
CCOC(=O)c1ccc(N(CC)c2nc(C)cc(C)n2)c(SC)c1 [compound 184, N-(4-carboethoxy-2-methylthiophenyl)-N-ethyl-4,6-dimethyl-2-pyrimidinamine] | 5.70 to 6.30 | 99 to 100
CCN(c1nc(C)cc(C)n1)c1ccc(N(C)C)cc1SC [compound 191, N-(4-(N,N-dimethylamino)-2-methylthiophenyl)-N-ethyl-4,6-dimethyl-2-pyrimidinamine] | > 6.30 | 119 to 120
CCN(c1nc(C)cc(N2CC[S+]([O-])CC2)n1)c1ccc(C(C)C)cc1I [compound 56, N-ethyl-N-(2-iodo4-(1-methylethyl)phenyl)4-thiomorpholino-6-methyl-2-pyrimidinamine, S-oxide] | > 6.30 | 52 to 55
CCN(c1nc(C)cc(C(=O)NC2CCCCC2)n1)c1ccc(C(C)C)cc1Br [compound 62] | 5.70 to 6.30 | 115
Cc1cc(Cl)nc2c1c(C#N)cn2-c1ccc(C(C)C)cc1Br [Example 262] | > 6.30 | 123.8
Cc1cc(Cl)c2c(C#N)cn(-c3ccc(C(C)C)cc3Br)c2n1 [Example 255] | 5.70 to 6.30 | 179.2
CCN(c1nc(C)cc(N2CCN(C=O)CC2)n1)c1ccc(C(C)C)cc1Br [compound 25] | > 6.30 | 61 to 63
COc1cc(OC)c(N(C)c2nc(C)cc(C)n2)c(OC)c1 [compound 14] | 5.70 to 6.30 | 145 to 146
CCCCc1ccc(N(CCC)c2nc(C)cc(C)n2)c(Br)c1 [compound 20] | > 6.30 | 49 to 50
CCN(c1nc(C)cc(C)n1)c1ccc(C(C)C)cc1S(C)(=O)=O [compound 174, N-(2-methylsulfonyl-4-(1-methylethyl)phenyl)-N-ethyl-4,6-dimethyl-2-pyrimidinamine] | > 6.30 | 174 to 176
CCc1ccc(N(c2nc(C)cc(C)n2)C(C)C)c(SC)c1 [compound 181, N-(4-ethyl-2-methylthiophenyl)-N-(1-methylethyl)4,6-dimethyl-2-pyrimidinamine] | > 6.30 | 85 to 87
CCN(c1nc(C)cc(C)n1)c1ccc(C#N)cc1SC [compound 186, N-(4-cyano-2-methylthiophenyl)-N-ethyl-4,6-dimethyl-2-pyrimidinamine] | > 6.30 | 99 to 100

Now from value to compound:

pKi (CRF receptor) | melting point [°C] | SMILES
5.70 to 6.30 | 177 to 179 | COc1cc(Br)c(Nc2nc(C)cc(C)n2)c(OC)c1 [compound 203]
5.70 to 6.30 | 133 to 138 | CCN(c1nc(C)cc(C)n1)c1c(OC)cc(OC)c(Br)c1Br [compound 251, N-(2,3-Dibromo-4,6-dimethoxyphenyl)-N-ethyl-4,6-dimethyl-2-pyrimidinamine]
5.00 to 5.70 | 140 to 142 | CCN(c1nc(C)nc(Oc2ccccc2)n1)c1ccc(C(C)C)cc1Br [compound 243]
> 6.30 | 90 to 95 | CCN(c1nc(C)nc(N2CCOCC2)n1)c1c(Br)cc(OC)cc1OC [compound 237]
> 6.30 | 88 to 90 | C=CCN(c1nc(C)cc(C)n1)c1c(Br)cc(OC)cc1OC [compound 205]
> 6.30 | 136 to 138 | CCN(c1nc(C)cc(C(=O)c2ccco2)n1)c1ccc(C(C)C)cc1Br [compound 288]
> 6.30 | 186 to 187 | Cc1cc(N2CCCCC2)nc(N(C)c2ccc(C(C)C)cc2Br)n1 [compound 195]
> 6.30 | 211 to 212 | CCc1cc(N2CCCCC2)nc(N(C)c2ccc(C(C)C)cc2Br)n1 [compound 194]
> 6.30 | 56 to 58 | CCN(c1nc(C)cc(C(O)(c2ccccc2)c2ccccc2)n1)c1ccc(C(C)C)cc1Br [compound 293]
> 6.30 | 107 to 108 | CCOc1cc(Br)c(N(CC)c2nc(C)cc(C)n2)c(Br)c1 [compound 224, N-(2,6-Dibromo-4-(ethoxy)phenyl)-N-ethyl-4,6-dimethyl-2-pyrimidinamine]
> 6.30 | 63 to 65 | CCN(c1nc(C)cc(C(O)(c2ccc(OC)cc2)c2ccc(OC)cc2)n1)c1ccc(C(C)C)cc1Br [compound 289]
> 6.30 | 80 to 82 | CCN(c1nc(C)cc(C(=O)N(C)C)n1)c1ccc(C(C)C)cc1Br [compound 282]
> 6.30 | 119 to 120 | Cc1cc(N2CCCC2)nc(N(C)c2ccc(C(C)C)cc2Br)n1 [compound 193]
> 6.30 | 171 to 173 | CCN(c1nc(C)cc(C(=O)c2cc[nH]n2)n1)c1ccc(C(C)C)cc1Br [compound 286]
5.00 to 5.70 | 65 to 70 | CCOC(=O)N1CCN(c2nc(C)nc(N(CC)c3c(Br)cc(OC)cc3OC)n2)CC1 [compound 244]
> 6.30 | 106 to 107 | CCN(c1nc(C)cc(N2CCCC2)n1)c1ccc(C(C)C)cc1Br [compound 192]
5.70 to 6.30 | 114 to 116 | CCN(c1nc(C)cc(C(=O)N2CCN(c3ncccn3)CC2)n1)c1ccc(C(C)C)cc1Br [compound 273]
5.70 to 6.30 | 165 to 167 | CCOc1cc(Br)c(Nc2nc(C)cc(C)n2)c(Br)c1 [compound 228]
5.70 to 6.30 | 159 to 160 | CCCCN(c1nc(C)cc(C)n1)c1ccc(C(C)C)cc1Br [compound 197]
5.00 to 5.70 | 87 to 88 | CCN(c1nc(C)cc(C(=O)NCc2ccco2)n1)c1ccc(C(C)C)cc1Br [compound 270]
> 6.30 | 70 to 72 | CCN(c1nc(C)nc(N2CCSC2)n1)c1ccc(C(C)C)cc1Br [compound 241]
> 6.30 | 150 to 151 | CCCN(c1nc(C)cc(C)n1)c1ccc(C(C)C)cc1Br [compound 196]
> 6.30 | 72 to 75 | CCN(c1nc(C)nc(N(C)C)n1)c1ccc(C(C)C)cc1Br [compound 240]
> 6.30 | 57 to 60 | CCN(c1nc(C)cc(C(=O)N2CCN(c3ccccc3OC)CC2)n1)c1ccc(C(C)C)cc1Br [compound 268]
5.00 to 5.70 | 118 to 119 | COc1ccc(Nc2nc(C)cc(C)n2)c(Br)c1 [compound 204]
5.70 to 6.30 | 104 to 106 | CCN(c1nc(C)cc(C(=O)c2ccc(OC)cc2)n1)c1ccc(C(C)C)cc1Br [compound 287]

Reference: patent US6342503B1, “1N-alkyl-n-arylpyrimidinamines and derivatives thereof” (DuPont Pharmaceuticals Company, priority 1993, dated 2002)
